Assay results taken from patent publication US8222270B2 (Medicis Pharmaceutical Corporation, priority 2008, dated 2012).
Several values for one entry are separate records, joined by “and”; a condition that tells them apart may be missing. Identical values can stand only once.

Columns and labels:
[1] = Repeat dose oral toxicity, 6 months; assay type: in vivo, monkeys; conditions: dosed daily for 6 months
Procedure: (§1) The adverse effects observed for the high doses (10-30 mg/kg) in repeat dose oral toxicity studies in rats and monkeys could be related to exaggerated pharmacological effects of excessive cytokines induction and lymphoid stimulation: reduced body weight gains, anaemia, serum protein changes and death. […] An oral no-adverse-effect level of 3 mg/kg/day was determined in both rats and monkeys dosed daily for 6 months.

[2] = Topical pharmacokinetics, 5 mg/kg three times per week for 4 weeks; conditions: rat, in vivo
[3] = Repeat dose oral toxicity, 6 months; assay type: in vivo, rats; conditions: dosed daily for 6 months
Procedure: as §1

[4] = Oral (gavage) carcinogenicity study, 24 months
[5] = test system: human monocytes/macrophages and keratinocytes; assay: In vitro cytokine induction; assay type: cell-based
Description: The panel of cytokines induced varied with the cell's tissue origin.

[6] = Oral embryofetal development study; assay type: in vivo, rats
Procedure: Systemic embryofetal development studies were conducted in rats and rabbits.

[7] = test system: interleukin-1 antagonist, interferon-α, 2′5′-oligoadenylate synthetase; assay: Biomarker response in 58 patients with AK treated 3 times per week for 16 weeks; assay type: in vivo, human; conditions: 16 weeks of dosing
[8] = Procedure: A combined fertility and peri- and post-natal development study was conducted in rats.
[9] = Acute dermal toxicity under occlusion
[10] = parameters: species or system mice; conditions: CD-1, mouse, in vivo, 2 years
[11] = Intravenous embryofetal development study; assay type: in vivo, rabbits
[12] = Physicochemical properties of the drug substance (solubility, pKa)
Procedure: Physicochemical Properties: • Physical Form: Crystalline solid that varies in colour from white to off-white or buff. […] It can be made soluble to the extent of at least 100 mg/mL in methanol (as a salt) upon the addition of a few drops of hydrochloric or acetic acid.

[13] = Stability of calibration standards in spent receiver fluid; assay type: physicochemical; conditions: vs T = 0

CC(C)Cn1cnc2c(N)nc3ccccc3c21 [imiquimod, 1-(2-methylpropyl)-1H-imidazo[4,5-c]quinolin-4-amine]
Oral no-adverse-effect level [1]: 3 mg/kg/day | Imiquimod in serum [2]: not quantifiable | Oral no-adverse-effect level [3]: 3 mg/kg/day | Exposure multiple, male and female rats ([4]; 3 mg/kg 7×/week): 29 ×MRHD | Exposure multiple, male rats ([4]; 4 mg/kg 2×/week): 45 ×MRHD | Exposure multiple, female rats ([4]; 6 mg/kg 2×/week): 57 ×MRHD based on AUC comparisons | Highest dose tested without treatment related tumors, female rats ([4]; 2×/week, 24 months): 6 mg/kg | Highest dose tested without treatment related tumors, male rats ([4]; 2×/week, 24 months): 4 mg/kg | Highest dose tested without treatment related tumors, male and female rats ([4]; 7×/week, 24 months): 3 mg/kg | Carcinogenic effect, male and female rats ([4]; two-year bioassay, up to 3 mg/kg orally per day): no evidence of a carcinogenic effect | Release of interferon alpha (IFN-α) and other cytokines [5]: induces the release | Exposure multiple at dose with fetal effects ([6]; female, rat, in vivo): 427 ×MRHD based on AUC comparisons | Exposure multiple at no-effect dose ([6]; female, rat, in vivo): 83 ×MRBD based on AUC comparisons | Teratogenicity ([6]; female, rat, in vivo): not teratogenic | High maternally toxic dose with reduced pup weights and delayed ossification ([6]; female, rat, in vivo, 20 mg/kg/day): 28 times human dose on a mg/m^2 basis | Dose at which fetal effects were noted (in the presence of maternal toxicity) ([6]; oral, gestational days 6-15): 20 mg/kg/day | Dose with no treatment related effects on embryofetal toxicity or teratogenicity ([6]; oral, gestational days 6-15): 5 mg/kg/day | 2′5′-oligoadenylate synthetase, median concentration after multiple dosing vs single dose [7]: approximately 3 fold | Interferon-α, median concentration after multiple dosing vs single dose [7]: ≤ 3 fold | Interleukin-1 antagonist, median concentration after multiple dosing vs single dose [7]: < 2 fold | Exposure multiple at dose without teratogenicity ([8]; 3 mg/kg/day): 27 ×MRHD based on AUC comparisons | Dose up to which no impairment of reproduction was demonstrated ([8]; daily oral, throughout mating, gestation, parturition and lactation): 8 times recommended human dose on a mg/m^2 basis | Dose at which bent limb bones were noted in the F1 fetuses ([8]; in the absence of maternal toxicity): 6 mg/kg/day | Dose with no treatment related effects on teratogenicity ([8]; oral): 3 mg/kg/day | Dermal lethal dose ([9]; rabbit, in vivo): greater than 5000 mg/kg | LD50 ([9]; rabbit, in vivo, topical, 5000 mg/kg): > 5000 mg/kg | Acute dermal toxicity ([9]; unformulated, under occlusion, 5000 mg/kg): did not reveal any toxic effects | Carcinogenic effect, female mice ([10]; female): no evidence of a carcinogenic effect | Liver tumours, male mice at the highest dose vs unexposed controls ([10]; male): Liver tumours were increased | Teratogenicity ([11]; female, rabbit, in vivo): not teratogenic | Dose with no treatment related effects on embryofetal toxicity or teratogenicity ([11]; intravenous, gestational days 6-18): 2 mg/kg/day and 1 mg/kg/day | Solubility in fatty acids such as oleic acid and isostearic acid [12]: Soluble | pKa ([12]; UV spectroscopy and pH-solubility): ~7.5 | Solubility in most common organic solvents and in aqueous systems ([12]; except at extremely low pH): Practically insoluble | solubility ([12]; methanol, upon addition of a few drops of hydrochloric or acetic acid, read-out: Solubility in methanol (as a salt)): ≥ 100 mg/mL | 48 h % recovered in Spent receiver fluid ([13]; Standard 5.275 μg/ml, Epidermal sheet + placebo, 37° C.): 86.828% | 48 h % recovered in Spent receiver fluid ([13]; Standard 5.275 μg/ml, Epidermal sheet + placebo, Fridge): 88.881% | 48 h % recovered in Spent receiver fluid ([13]; Standard 5.275 μg/ml, Epidermal sheet + placebo, RT): 86.540% | 48 h % recovered in Spent receiver fluid ([13]; Standard 5.275 μg/ml, Epidermal sheet, 37° C.): 85.995% | 48 h % recovered in Spent receiver fluid ([13]; Standard 5.275 μg/ml, Epidermal sheet, Fridge): 88.938% | 48 h % recovered in Spent receiver fluid ([13]; Standard 5.275 μg/ml, Epidermal sheet, RT): 91.447% | 48 h % recovered in Spent receiver fluid ([13]; Standard 5.275 μg/ml, Full thickness + placebo, 37° C.): 86.134% | 48 h % recovered in Spent receiver fluid ([13]; Standard 5.275 μg/ml, Full thickness + placebo, Fridge): 90.260% | 48 h % recovered in Spent receiver fluid ([13]; Standard 5.275 μg/ml, Full thickness + placebo, RT): 87.973% | 48 h % recovered in Spent receiver fluid ([13]; Standard 5.275 μg/ml, Full thickness, 37° C.): 90.611% | 48 h % recovered in Spent receiver fluid ([13]; Standard 5.275 μg/ml, Full thickness, Fridge): 94.586% | 48 h % recovered in Spent receiver fluid ([13]; Standard 5.275 μg/ml, Full thickness, RT): 95.232% | 48 h % recovered in Spent receiver fluid ([13]; Standard 42.2 μg/ml, Epidermal sheet + placebo, 37° C.): 95.095% | 48 h % recovered in Spent receiver fluid ([13]; Standard 42.2 μg/ml, Epidermal sheet + placebo, Fridge): 93.077% | 48 h % recovered in Spent receiver fluid ([13]; Standard 42.2 μg/ml, Epidermal sheet + placebo, RT): 92.904% | 48 h % recovered in Spent receiver fluid ([13]; Standard 42.2 μg/ml, Epidermal sheet, 37° C.): 89.641% | 48 h % recovered in Spent receiver fluid ([13]; Standard 42.2 μg/ml, Epidermal sheet, Fridge): 85.716% | 48 h % recovered in Spent receiver fluid ([13]; Standard 42.2 μg/ml, Epidermal sheet, RT): 86.340% | 48 h % recovered in Spent receiver fluid ([13]; Standard 42.2 μg/ml, Full thickness + placebo, 37° C.): 86.439% | 48 h % recovered in Spent receiver fluid ([13]; Standard 42.2 μg/ml, Full thickness + placebo, Fridge): 83.976%
